Laboratory results from ChEMBL document CHEMBL4177564, “Pyrrolo[2,1-f][1,2,4]triazines: From C-nucleosides to kinases and back again, the remarkable journey of a versatile nitrogen heterocycle” (Bioorg Med Chem Lett, 2017).

How the values were obtained:
[1] = molecular target: Ubiquitin carboxyl-terminal hydrolase 7 (Homo sapiens, UniProt Q93009); experiment: Inhibition of His6-tagged USP7 (208 to 1102 residues) (unknown origin) using ubiquitin-rhodamine110 as substrate preincubated for 30 mins followed by substrate addition measured after 20 mins by fluorescence assay
[2] = molecular target: Potassium voltage-gated channel subfamily A member 5 (Homo sapiens) (UniProt P22460); experiment: Inhibition of human Kv1.5 expressed in mouse L929 cells assessed as reduction in channel current at 0.3 uM by patch clamp method relative to control; format: cell-based
Potassium voltage-gated channel subfamily A member 5 (Homo sapiens), sequence (P22460 whole entry): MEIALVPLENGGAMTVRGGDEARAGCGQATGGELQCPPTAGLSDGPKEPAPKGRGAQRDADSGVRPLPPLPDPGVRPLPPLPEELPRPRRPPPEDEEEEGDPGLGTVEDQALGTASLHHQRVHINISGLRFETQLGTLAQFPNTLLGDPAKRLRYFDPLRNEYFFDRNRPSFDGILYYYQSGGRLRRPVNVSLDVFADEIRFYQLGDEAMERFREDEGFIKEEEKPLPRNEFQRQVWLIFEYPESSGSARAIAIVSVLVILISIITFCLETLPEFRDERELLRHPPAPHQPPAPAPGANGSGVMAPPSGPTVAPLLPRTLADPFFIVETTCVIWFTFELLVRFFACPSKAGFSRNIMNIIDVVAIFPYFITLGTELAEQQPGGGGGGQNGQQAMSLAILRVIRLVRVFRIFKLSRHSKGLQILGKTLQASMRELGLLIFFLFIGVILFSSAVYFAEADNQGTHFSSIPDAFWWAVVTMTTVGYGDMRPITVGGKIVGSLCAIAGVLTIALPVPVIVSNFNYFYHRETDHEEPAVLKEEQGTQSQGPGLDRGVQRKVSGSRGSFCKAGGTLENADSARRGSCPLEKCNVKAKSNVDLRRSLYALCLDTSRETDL

Ubiquitin carboxyl-terminal hydrolase 7, sequence (Q93009 whole entry, the tested form may be a part): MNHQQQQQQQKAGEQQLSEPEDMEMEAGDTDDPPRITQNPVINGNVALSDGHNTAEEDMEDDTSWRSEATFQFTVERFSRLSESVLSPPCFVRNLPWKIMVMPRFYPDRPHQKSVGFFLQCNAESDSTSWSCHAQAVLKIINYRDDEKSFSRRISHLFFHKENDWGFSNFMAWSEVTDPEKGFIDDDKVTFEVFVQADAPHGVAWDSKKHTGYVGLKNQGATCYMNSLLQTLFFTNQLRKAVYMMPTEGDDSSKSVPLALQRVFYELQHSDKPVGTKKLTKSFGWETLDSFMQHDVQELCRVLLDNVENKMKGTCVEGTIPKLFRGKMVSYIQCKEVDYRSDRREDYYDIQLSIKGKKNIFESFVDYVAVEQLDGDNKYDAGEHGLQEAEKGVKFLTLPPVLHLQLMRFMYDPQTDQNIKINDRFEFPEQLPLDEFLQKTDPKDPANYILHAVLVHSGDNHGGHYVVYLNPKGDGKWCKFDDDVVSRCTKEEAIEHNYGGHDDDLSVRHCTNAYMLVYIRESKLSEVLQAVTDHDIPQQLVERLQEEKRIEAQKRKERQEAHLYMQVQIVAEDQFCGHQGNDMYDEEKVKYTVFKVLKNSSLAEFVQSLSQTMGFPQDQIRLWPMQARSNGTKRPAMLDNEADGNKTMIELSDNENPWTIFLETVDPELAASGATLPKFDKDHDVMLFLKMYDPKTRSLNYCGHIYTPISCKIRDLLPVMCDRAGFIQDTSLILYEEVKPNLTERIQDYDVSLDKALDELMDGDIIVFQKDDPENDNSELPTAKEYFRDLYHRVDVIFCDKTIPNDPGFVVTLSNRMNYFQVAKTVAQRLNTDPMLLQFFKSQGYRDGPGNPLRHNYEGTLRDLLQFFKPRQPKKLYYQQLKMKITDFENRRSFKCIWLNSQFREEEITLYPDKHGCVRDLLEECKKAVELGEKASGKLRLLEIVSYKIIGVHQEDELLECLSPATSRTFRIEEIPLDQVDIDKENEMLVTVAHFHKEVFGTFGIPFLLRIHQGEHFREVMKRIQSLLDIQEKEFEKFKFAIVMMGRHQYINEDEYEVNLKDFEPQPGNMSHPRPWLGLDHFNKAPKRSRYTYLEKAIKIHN

Row | SMILES | IC50 [1] | inhibition [2]
1 | C[C@H](CC(=O)N1CCC(O)(Cn2cnn3cccc3c2=O)CC1)c1ccccc1 | < 0.2 µM | –
2 | NS(=O)(=O)c1cncc(-c2nc(NCc3ccccc3)c3c(-c4ccccc4)ccn3n2)c1 | – | > 95%
